Measured values: ChEMBL document CHEMBL1201862, “PubChem BioAssay data set” (2004)
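Exposure lasted 48 hours, with cells grown in 96-well plates and compounds tested at five concentrations. GI50 is the concentration that inhibits growth by half.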 Activity calls are given as the source filed them. Rule as the data show it: active = GI50 up to about 1.1 µM and inactive = higher.

Key:
Assay in all cases: NCI-60 cell line screen, 48 h
SN12C = tested on: SN12C
786-0 = tested on: 786-0
NCI-H522 = tested on: NCI-H522
SW-620 = tested on: SW-620
OVCAR-4 = tested on: OVCAR-4
DMS-273 = tested on: DMS-273
OVCAR-3 = tested on: OVCAR-3
U-251 = tested on: U-251
CAKI-1 = tested on: CAKI-1
A549 = tested on: A549
HT-29 = tested on: HT-29
OVCAR-5 = tested on: OVCAR-5
HOP-18 = tested on: HOP-18
UO-31 = tested on: UO-31
A498 = tested on: A498
RXF 631 = tested on: RXF 631
SNB-75 = tested on: SNB-75
SF-295 = tested on: SF-295
DLD-1 = tested on: DLD-1
UACC-62 = tested on: UACC-62
MOLT-4 = tested on: MOLT-4
Malme-3M = tested on: Malme-3M
NCI-H226 = tested on: NCI-H226
K562 = tested on: K562
M14 = tested on: M14
HOP-92 = tested on: HOP-92
OVCAR-8 = tested on: OVCAR-8
KM12 = tested on: KM12
LOX IMVI = tested on: LOX IMVI
NCI-H23 = tested on: NCI-H23
LXFL 529 = tested on: LXFL 529
COLO 205 = tested on: COLO 205
SK-OV-3 = tested on: SK-OV-3
SK-MEL-28 = tested on: SK-MEL-28
RXF 393 = tested on: RXF 393
M19-MEL = tested on: M19-MEL
SR = tested on: SR
IGROV-1 = tested on: IGROV-1
SK-MEL-5 = tested on: SK-MEL-5
SF-539 = tested on: SF-539
NCI-H460 = tested on: NCI-H460
HL-60 = tested on: HL-60
SK-MEL-2 = tested on: SK-MEL-2
ACHN = tested on: ACHN
XF498 = tested on: XF498
KM-20L2 = tested on: KM-20L2
TK-10 = tested on: TK-10
CCRF-CEM = tested on: CCRF-CEM
SF-268 = tested on: SF-268
HCT-15 = tested on: HCT-15
HCT-116 = tested on: HCT-116
SNB-19 = tested on: SNB-19
HOP-62 = tested on: HOP-62
DMS-114 = tested on: DMS-114
UACC-257 = tested on: UACC-257
EKVX = tested on: EKVX
SNB-78 = tested on: SNB-78
RPMI-8226 = tested on: RPMI-8226
HCC 2998 = tested on: HCC 2998

SMILES: CC(=O)O/N=C/c1ncccc1CO
- GI50 (SN12C): > 100 µM (inactive)
- GI50 (786-0): > 100 µM (inactive)
- GI50 (NCI-H522): > 100 µM (inactive)
- GI50 (SW-620): > 100 µM (inactive)
- GI50 (OVCAR-4): > 100 µM (inactive)
- GI50 (DMS-273): > 100 µM (inactive)
- GI50 (OVCAR-3): > 100 µM (inactive)
- GI50 (U-251): > 100 µM (inactive)
- GI50 (CAKI-1): > 100 µM (inactive)
- GI50 (A549): > 100 µM (inactive)
- GI50 (HT-29): > 100 µM (inactive)
- GI50 (OVCAR-5): > 100 µM (inactive)
- GI50 (HOP-18): > 100 µM (inactive)
- GI50 (UO-31): > 100 µM (inactive)
- GI50 (A498): > 100 µM (inactive)
- GI50 (RXF 631): > 100 µM (inactive)
- GI50 (SNB-75): > 100 µM (inactive)
- GI50 (SF-295): > 100 µM (inactive)
- GI50 (DLD-1): > 100 µM (inactive)
- GI50 (UACC-62): > 100 µM (inactive)
- GI50 (MOLT-4): > 100 µM (inactive)
- GI50 (Malme-3M): > 100 µM (inactive)
- GI50 (NCI-H226): > 100 µM (inactive)
- GI50 (K562): > 100 µM (inactive)
- GI50 (M14): > 100 µM (inactive)
- GI50 (HOP-92): > 100 µM (inactive)
- GI50 (OVCAR-8): > 100 µM (inactive)
- GI50 (KM12): > 100 µM (inactive)
- GI50 (LOX IMVI): > 100 µM (inactive)
- GI50 (NCI-H23): > 100 µM (inactive)
- GI50 (LXFL 529): > 100 µM (inactive)
- GI50 (COLO 205): > 100 µM (inactive)
- GI50 (SK-OV-3): > 100 µM (inactive)
- GI50 (SK-MEL-28): > 100 µM (inactive)
- GI50 (RXF 393): > 100 µM (inactive)
- GI50 (M19-MEL): > 100 µM (inactive)
- GI50 (SR): > 100 µM (inactive)
- GI50 (IGROV-1): > 100 µM (inactive)
- GI50 (SK-MEL-5): > 100 µM (inactive)
- GI50 (SF-539): > 100 µM (inactive)
- GI50 (NCI-H460): > 100 µM (inactive)
- GI50 (HL-60): > 100 µM (inactive)
- GI50 (SK-MEL-2): > 100 µM (inactive)
- GI50 (ACHN): > 100 µM (inactive)
- GI50 (XF498): > 100 µM (inactive)
- GI50 (KM-20L2): > 100 µM (inactive)
- GI50 (TK-10): > 100 µM (inactive)
- GI50 (CCRF-CEM): > 100 µM (inactive)
- GI50 (SF-268): > 100 µM (inactive)
- GI50 (HCT-15): > 100 µM
- GI50 (HCT-116): > 100 µM (inactive)
- GI50 (SNB-19): > 100 µM (inactive)
- GI50 (HOP-62): > 100 µM (inactive)
- GI50 (DMS-114): > 100 µM (inactive)
- GI50 (UACC-257): > 100 µM (inactive)
- GI50 (EKVX): > 100 µM (inactive)

SMILES: C/C(Cc1ccccc1)=N\NC(N)=S
- GI50 (SN12C): > 100 µM (inactive)
- GI50 (OVCAR-4): > 100 µM (inactive)
- GI50 (DMS-273): > 100 µM (inactive)
- GI50 (U-251): > 100 µM (inactive)
- GI50 (HOP-18): > 100 µM (inactive)
- GI50 (A498): > 100 µM (inactive)
- GI50 (RXF 631): > 100 µM (inactive)
- GI50 (SNB-75): > 100 µM (inactive)
- GI50 (SNB-78): > 100 µM (inactive)
- GI50 (UACC-62): > 100 µM (inactive)
- GI50 (MOLT-4): > 100 µM (inactive)
- GI50 (K562): > 100 µM (inactive)
- GI50 (M14): > 100 µM (inactive)
- GI50 (HOP-92): 67.1 µM (inactive)
- GI50 (LOX IMVI): > 100 µM (inactive)
- GI50 (NCI-H23): > 100 µM (inactive)
- GI50 (LXFL 529): > 100 µM (inactive)
- GI50 (RPMI-8226): 92.9 µM (inactive)
- GI50 (COLO 205): > 100 µM (inactive)
- GI50 (SK-OV-3): > 100 µM (inactive)
- GI50 (SK-MEL-28): > 100 µM (inactive)
- GI50 (RXF 393): 70.1 µM (inactive)
- GI50 (M19-MEL): > 100 µM (inactive)
- GI50 (IGROV-1): > 100 µM (inactive)
- GI50 (SF-539): > 100 µM (inactive)
- GI50 (NCI-H460): > 100 µM (inactive)
- GI50 (HL-60): > 100 µM (inactive)
- GI50 (ACHN): > 100 µM (inactive)
- GI50 (XF498): > 100 µM (inactive)
- GI50 (KM-20L2): > 100 µM (inactive)
- GI50 (CCRF-CEM): > 100 µM (inactive)
- GI50 (HCT-15): > 100 µM
- GI50 (SNB-19): > 100 µM (inactive)
- GI50 (DMS-114): 76 µM (inactive)

SMILES: COc1cc(Nc2cnc3ccc(N)cc3n2)cc(OC)c1OC
- GI50 (SN12C): > 100 µM (inactive)
- GI50 (786-0): > 100 µM (inactive)
- GI50 (NCI-H522): 50.1 µM (inactive)
- GI50 (SW-620): > 100 µM (inactive)
- GI50 (OVCAR-4): > 100 µM (inactive)
- GI50 (DMS-273): > 85.3 µM (inactive)
- GI50 (OVCAR-3): 41.3 µM (inactive)
- GI50 (U-251): > 100 µM (inactive)
- GI50 (CAKI-1): 59.2 µM (inactive)
- GI50 (A549): > 100 µM (inactive)
- GI50 (HT-29): 48.9 µM (inactive)
- GI50 (OVCAR-5): > 100 µM (inactive)
- GI50 (HOP-18): 39.4 µM (inactive)
- GI50 (UO-31): 37.8 µM (inactive)
- GI50 (A498): > 100 µM (inactive)
- GI50 (RXF 631): > 100 µM (inactive)
- GI50 (SNB-75): 49.3 µM (inactive)
- GI50 (SF-295): > 96.6 µM (inactive)
- GI50 (SNB-78): > 100 µM (inactive)
- GI50 (UACC-62): 69.3 µM (inactive)
- GI50 (MOLT-4): 49 µM (inactive)
- GI50 (Malme-3M): > 65.2 µM (inactive)
- GI50 (NCI-H226): > 100 µM (inactive)
- GI50 (K562): 18.5 µM (inactive)
- GI50 (M14): > 100 µM (inactive)
- GI50 (HOP-92): 61.2 µM (inactive)
- GI50 (OVCAR-8): > 100 µM (inactive)
- GI50 (KM12): 39.4 µM (inactive)
- GI50 (LOX IMVI): 36.6 µM (inactive)
- GI50 (NCI-H23): 98.6 µM (inactive)
- GI50 (LXFL 529): 56.5 µM (inactive)
- GI50 (RPMI-8226): 16.6 µM (inactive)
- GI50 (COLO 205): 42.5 µM (inactive)
- GI50 (SK-OV-3): > 86.9 µM (inactive)
- GI50 (SK-MEL-28): 78.2 µM (inactive)
- GI50 (RXF 393): 45.3 µM (inactive)
- GI50 (M19-MEL): > 84.1 µM (inactive)
- GI50 (IGROV-1): 80.4 µM (inactive)
- GI50 (SK-MEL-5): 16.9 µM (inactive)
- GI50 (NCI-H460): 69.3 µM (inactive)
- GI50 (HL-60): 17.7 µM (inactive)
- GI50 (SK-MEL-2): > 100 µM (inactive)
- GI50 (ACHN): > 100 µM (inactive)
- GI50 (HCC 2998): > 100 µM (inactive)
- GI50 (XF498): 11 µM (inactive)
- GI50 (KM-20L2): 56.6 µM (inactive)
- GI50 (TK-10): > 83.6 µM (inactive)
- GI50 (CCRF-CEM): 19.8 µM (inactive)
- GI50 (SF-268): > 100 µM (inactive)
- GI50 (HCT-15): 69.2 µM
- GI50 (HCT-116): > 94.6 µM (inactive)
- GI50 (SNB-19): > 100 µM (inactive)
- GI50 (HOP-62): 29.2 µM (inactive)
- GI50 (DMS-114): 79.3 µM (inactive)
- GI50 (UACC-257): > 57 µM (inactive)
- GI50 (EKVX): > 100 µM (inactive)
